Measurements from ChEMBL document CHEMBL4834431, “Design of Dimeric Bile Acid Derivatives as Potent and Selective Human NTCP Inhibitors” (J Med Chem, 2021).
Calls of active or inactive are those of the source. No cut-off for these calls is given here.

Assays:
[1] = biological target: T1, Hepatic sodium/bile acid cotransporter (Homo sapiens, UniProt Q14973); experiment: Inhibition of human NTCP-mediated [3H]-TCA uptake expressed in human HepG2 cells pretreated for 2 hrs followed by [3H]-TCA addition in absence of FBS; type: cell-based
T1 sequence (Q14973 whole entry): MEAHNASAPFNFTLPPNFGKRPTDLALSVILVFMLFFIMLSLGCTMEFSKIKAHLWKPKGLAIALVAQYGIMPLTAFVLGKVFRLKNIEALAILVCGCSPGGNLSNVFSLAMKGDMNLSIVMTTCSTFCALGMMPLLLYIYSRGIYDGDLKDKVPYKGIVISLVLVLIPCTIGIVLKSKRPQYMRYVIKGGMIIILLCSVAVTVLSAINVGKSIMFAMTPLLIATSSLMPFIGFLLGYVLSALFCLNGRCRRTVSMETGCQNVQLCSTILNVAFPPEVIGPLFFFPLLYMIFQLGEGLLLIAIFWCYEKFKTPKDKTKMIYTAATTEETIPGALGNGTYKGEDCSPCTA

Hepatitis B virus [2] = experiment: Antiviral activity against HBV infected in human HepG2-NTCP cells assessed as reduction in HBeAg secretion incubated for 24 hrs followed replacement with fresh medium and measured at day 5 post infection by ELISA; type: functional, organism-based
[3] = biological target: T1, Hepatic sodium/bile acid cotransporter; experiment: Inhibition of human NTCP-mediated [3H]-TCA uptake expressed in human HepG2 cells at 2 uM; type: cell-based; conditions: hepg2, 2 µM
[4] = biological target: T2, Ileal sodium/bile acid cotransporter (Homo sapiens, UniProt Q12908); experiment: Inhibition of human ASBT-mediated [3H]-TCA uptake expressed in human HepG2 cells at 2 uM; type: cell-based; conditions: hepg2, 2 µM
T2 sequence (Q12908 whole entry): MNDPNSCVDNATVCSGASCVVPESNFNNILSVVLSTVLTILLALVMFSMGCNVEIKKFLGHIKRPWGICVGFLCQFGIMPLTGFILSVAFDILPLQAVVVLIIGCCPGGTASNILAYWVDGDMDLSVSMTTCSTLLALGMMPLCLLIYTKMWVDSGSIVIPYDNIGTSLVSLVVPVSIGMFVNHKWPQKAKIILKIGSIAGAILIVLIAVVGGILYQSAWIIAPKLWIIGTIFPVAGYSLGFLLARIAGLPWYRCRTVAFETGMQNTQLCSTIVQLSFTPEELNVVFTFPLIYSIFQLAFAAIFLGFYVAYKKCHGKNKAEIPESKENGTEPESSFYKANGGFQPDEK

Hepatitis B virus [5] = experiment: Antiviral activity against HBV infected in human HepG2-NTCP cells assessed as reduction in HBeAg secretion at 1 uM preincubated with compound followed by viral infection by ELISA; type: functional, organism-based
Hepatitis B virus [6] = experiment: Antiviral activity against HBV infected in human HepG2-NTCP cells assessed as reduction in HBeAg secretion preincubated for 2 hrs followed by viral infection by ELISA; type: functional, organism-based
[7] = biological target: T3, Solute carrier organic anion transporter family member 1B1 (Homo sapiens, UniProt Q9Y6L6); experiment: Inhibition of human OATP1B1-mediated [3H]-Estrone sulfate uptake expressed in human HepG2 cells at 2 uM; type: cell-based; conditions: hepg2, 2 µM
T3 sequence (Q9Y6L6 whole entry): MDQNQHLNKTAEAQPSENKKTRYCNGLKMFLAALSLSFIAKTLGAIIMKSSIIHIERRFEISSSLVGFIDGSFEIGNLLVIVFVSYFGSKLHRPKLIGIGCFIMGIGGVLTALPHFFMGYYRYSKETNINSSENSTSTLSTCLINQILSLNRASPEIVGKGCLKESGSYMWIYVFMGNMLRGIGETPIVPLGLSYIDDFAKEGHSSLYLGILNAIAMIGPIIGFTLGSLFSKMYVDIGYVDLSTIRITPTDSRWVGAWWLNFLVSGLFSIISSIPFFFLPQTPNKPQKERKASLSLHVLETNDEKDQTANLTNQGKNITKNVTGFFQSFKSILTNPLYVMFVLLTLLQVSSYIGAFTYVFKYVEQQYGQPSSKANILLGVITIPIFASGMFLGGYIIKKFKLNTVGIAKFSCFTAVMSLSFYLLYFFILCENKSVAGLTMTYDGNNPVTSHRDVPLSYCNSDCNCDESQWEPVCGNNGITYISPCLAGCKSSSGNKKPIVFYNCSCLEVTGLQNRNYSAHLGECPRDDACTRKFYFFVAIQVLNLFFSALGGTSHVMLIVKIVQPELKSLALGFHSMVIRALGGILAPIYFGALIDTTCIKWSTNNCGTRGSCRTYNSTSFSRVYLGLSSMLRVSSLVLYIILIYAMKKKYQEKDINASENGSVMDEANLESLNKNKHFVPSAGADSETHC

HepG2 [8] = experiment: Effect on NTCP surface expression in human HepG2-NTCP cells assessed as reduction in NTCP surface expression level after 2 hrs by immunostaining based assay; type: functional, cell-based
Hepatocyte = experiment: Cytotoxicity against primary tupaia hepatocytes expressing NTCP assessed as reduction in cell viability at 100 uM after 48 hrs by Cell-Titer Glo assay; type: cell-based; conditions: scandentia
[9] = biological target: T1, Hepatic sodium/bile acid cotransporter; experiment: Inhibition of human NTCP-mediated NQL-065 uptake expressed in human HepG2 cells incubated for 30 mins; type: cell-based; conditions: hepg2, 0.5 h
[10] = biological target: T1, Hepatic sodium/bile acid cotransporter; experiment: Inhibition of human NTCP-mediated [3H]-Estrone sulfate uptake expressed in human HepG2 cells at 2 uM; type: cell-based; conditions: hepg2, 2 µM
Hepatitis B virus [11] = experiment: Antiviral activity against HBV infected in human HepG2-NTCP cells assessed as reduction in intracellular accumulation of HBcAg at 1 uM by immunostaining based fluorescence microscopic analysis; type: functional, organism-based
Hepatitis delta virus = experiment: Antiviral activity against HDV infected in human HepG2-NTCP cells assessed as reduction in intranuclear accumulation of HDV delta antigen at 5 uM incubated for 24 hrs followed by replacement with fresh medium and measured at day 5 post infection by DAPI staining based confocal microscopic analysis (reference value: 12.1 %); type: functional; design: scale not given: the % may be the effect or the level left
Hepatitis B virus [12] = experiment: Antiviral activity against HBV infected in human HepG2-NTCP cells assessed as reduction in HBeAg secretion at 111 to 1000 nM incubated for 24 hrs followed by replacement with fresh medium and measured at day 5 post infection by ELISA; type: functional, organism-based; conditions: dose 111-1000 nM
HepG2 [13] = experiment: Cytotoxicity against human HepG2 cells expressing NTCP assessed as reduction in cell viability at 10 uM after 48 hrs by alamar blue assay; type: cell-based; conditions: hepg2, 48 h
Hepatitis B virus [14] = experiment: Antiviral activity against HBV infected in human HepG2-NTCP cells assessed as reduction in HBeAg secretion at 1 uM pre-infected with virus followed by compound addition by ELISA; type: functional, organism-based
Hepatitis B virus [15] = experiment: Antiviral activity against HBV infected in human HepG2-NTCP cells assessed as reduction in intracellular HBV RNA level at 1 uM by qPCR analysis; type: functional, organism-based
[16] = biological target: T1, Hepatic sodium/bile acid cotransporter; experiment: Inhibition of human NTCP-mediated NQL-064 uptake expressed in human HepG2 cells incubated for 30 mins; type: cell-based; conditions: hepg2, 0.5 h
Hepatitis B virus [17] = experiment: Antiviral activity against HBV infected in human HepG2-NTCP cells assessed as reduction in HBeAg secretion at 1 uM compound added along with viral infection by ELISA; type: functional, organism-based
Hepatitis B virus [18] = experiment: Antiviral activity against HBV infected in human HepG2-NTCP cells assessed as reduction in intracellular accumulation of HBsAg at 1 uM by immunostaining based fluorescence microscopic analysis; type: functional, organism-based
[19] = biological target: T1, Hepatic sodium/bile acid cotransporter; experiment: Inhibition of FITC-labeled HBV Pre-S1 polypeptide binding to human NTCP expressed in HepG2 cells after 2 to 3 hrs by confocal microscopic analysis; type: cell-based; conditions: time 2-3 hrs
HepG2 [20] = experiment: Inhibition of tree shrew NTCP-mediated [3H]-TCA uptake expressed in human HepG2 cells; type: cell-based; conditions: Scandentia
HepG2 [21] = experiment: Inhibition of monkey NTCP-mediated [3H]-TCA uptake expressed in human HepG2 cells; type: cell-based; conditions: Macaca mulatta
[22] = biological target: T1, Hepatic sodium/bile acid cotransporter; experiment: Inhibition of human NTCP-mediated [3H]-TCA uptake expressed in human HepG2 cells; type: cell-based; conditions: human, hepg2
[23] = biological target: T4, Hepatic sodium/bile acid cotransporter (Mus musculus, UniProt O08705); experiment: Inhibition of mouse NTCP-mediated [3H]-TCA uptake expressed in human HepG2 cells; type: cell-based
T4 sequence (O08705 whole entry): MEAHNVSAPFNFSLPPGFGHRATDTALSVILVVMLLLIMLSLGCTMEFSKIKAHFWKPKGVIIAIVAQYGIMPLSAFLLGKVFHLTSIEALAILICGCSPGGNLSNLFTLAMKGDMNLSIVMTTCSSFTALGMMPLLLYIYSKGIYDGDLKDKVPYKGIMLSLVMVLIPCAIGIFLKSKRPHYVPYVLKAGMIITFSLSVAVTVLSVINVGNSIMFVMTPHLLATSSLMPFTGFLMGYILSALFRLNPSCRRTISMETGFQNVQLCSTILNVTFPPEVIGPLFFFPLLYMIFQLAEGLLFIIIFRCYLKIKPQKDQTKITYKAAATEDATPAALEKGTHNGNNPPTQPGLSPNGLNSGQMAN

Compound	IC50 (Hepatitis B virus [2])	inhibition (INH) [3]	inhibition (INH) [4]	Activity (Hepatitis B virus [5])	Activity (Hepatitis B virus [6])	inhibition (INH) [7]	Activity (HepG2 [8])	Activity (Hepatocyte)	inhibition (INH) [9]	inhibition (INH) [10]	Activity (Hepatitis B virus [11])	Activity (Hepatitis delta virus)	Activity (Hepatitis B virus [12])	Activity (HepG2 [13])	Activity (Hepatitis B virus [14])	Activity (Hepatitis B virus [15])	inhibition (INH) [16]	Activity (Hepatitis B virus [17])	Activity (Hepatitis B virus [18])	inhibition (INH) [19]	also measured
C[C@@H]1CCC(=O)NCCNC(=O)CC[C@@H](C)[C@H]2CC[C@H]3[C@@H]4[C@@H](O)C[C@@H]5C[C@@H](CC[C@]5(C)[C@H]4CC[C@]23C)n2cc(nn2)CO[C@@H]2CC[C@@]3(C)[C@@H](C2)C[C@H](O)[C@@H]2[C@@H]3CC[C@]3(C)[C@@H]1CC[C@@H]23	81 nM	–	–	–	–	–	–	–	–	–	–	–	–	–	–	–	–	–	–	–	IC50 [1]: 37.5 nM
C[C@H](CCC(=O)NCCS(=O)(=O)O)[C@H]1CC[C@H]2[C@@H]3[C@@H](O)C[C@@H]4C[C@H](OC(=O)CCCC(=O)O[C@@H]5CC[C@@]6(C)[C@@H](C5)C[C@H](O)[C@@H]5[C@@H]6CC[C@]6(C)[C@@H]([C@H](C)CCC(=O)NCCS(=O)(=O)O)CC[C@@H]56)CC[C@]4(C)[C@H]3CC[C@]12C	65 nM	Active	Not Active	Active	inactive	Not Active	inactive	Non-Toxic	Active	Active	Active	2.8%	Active	Non-Toxic	inactive	Active	Active	Active	Active	Active	–
C[C@H](CCCN(CC[C@@H](C)[C@H]1CC[C@H]2[C@@H]3[C@@H](O)C[C@@H]4C[C@H](O)CC[C@]4(C)[C@H]3CC[C@]12C)CCS(=O)(=O)O)[C@H]1CC[C@H]2[C@@H]3[C@@H](O)C[C@@H]4C[C@H](O)CC[C@]4(C)[C@H]3CC[C@]12C	110 nM	Active	Not Active	Active	Active	Not Active	inactive	Non-Toxic	Active	Active	Active	4.6%	Active	Non-Toxic	inactive	Active	Active	Active	Active	Active	inhibition (HepG2 [20]): Active; inhibition (HepG2 [21]): Active; inhibition (INH) [22]: Active; inhibition (INH) [23]: Active
C[C@@H]1CCC(=O)NCCNC(=O)CC[C@@H](C)[C@H]2CC[C@H]3[C@@H]4[C@@H](O)C[C@@H]5C[C@@H](CC[C@]5(C)[C@H]4CC[C@]23C)NC(=O)CCCC(=O)N[C@@H]2CC[C@@]3(C)[C@@H](C2)C[C@H](O)[C@@H]2[C@@H]3CC[C@]3(C)[C@@H]1CC[C@@H]23	100 nM	Active	Not Active	Active	–	Not Active	inactive	Non-Toxic	–	Active	Active	2.9%	Active	Non-Toxic	inactive	Active	–	Active	Active	Active	–
C[C@H](CCC(=O)NCCS(=O)(=O)O)[C@H]1CC[C@H]2[C@@H]3[C@H](O)C[C@@H]4C[C@H](OC(=O)CCCC(=O)O[C@@H]5CC[C@@]6(C)[C@@H](C5)C[C@@H](O)[C@@H]5[C@@H]6CC[C@]6(C)[C@@H]([C@H](C)CCC(=O)NCCS(=O)(=O)O)CC[C@@H]56)CC[C@]4(C)[C@H]3CC[C@]12C	187 nM	–	–	–	–	–	–	–	–	–	–	–	–	–	–	–	–	–	–	–	–
